Assay results published in publication PMC3938723, “Learning from Host-Defense Peptides: Cationic, Amphipathic Peptoids with Potent Anticancer Activity” (PLoS ONE, 2014).
Non-standard residues stand in square brackets, D forms with d. Residues, ends and D or L forms follow the SMILES beside them. Nspe = C[C@H](NCC(=O)O)c1ccccc1; Nlys = NCCCCNCC(=O)O

Experiments:
[1] = test system: human breast cancer xenograft; assay: Human breast cancer orthotopic xenograft mouse model, tumor growth; assay type: in vivo; conditions: ~1 mg/kg (100 µl of 110 µM in PBS) injected into mammary fat pad three times a week, NSG mice, versus control peptoid 1 11mer-NLeu; caliper; P = 0.0014, t test
Experimental: (§1) 80,000 cells from a dissociated second generation metastatic breast cancer tumor were suspended in Medium 199 containing 25% Matrix Matrigel (Becton Dickinson 354248) and injected into the mammary fat pad of 4–8 week old NOD.Cg-Prkdc^scid Il2rg^tm1Wjl/SzJ (NSG) mice. After two weeks, 100 µl PBS containing 110 µM peptoid 1 or control peptide was injected into the mammary fat pad three times a week, roughly at a dose of 1 mg/kg. Tumor volumes were determined using direct caliper measurements following […] of treatment.
(§2) Human breast cancer cells were implanted in the mammary fat pad of immunocompromised mice.
Figure 5 Reduction of tumor volumes in a human breast cancer xenograft mouse model treated with peptoid 1. Cancer cells (8×10^4 cells) isolated from the second generation xenografts of human breast cancer tissues were implanted s.c. into the lower left mammary fat pads of 5–6-week-old immunocompromised NSG (NOD.Cg-Prkdc^scid Il2rg^tm1Wjl/SzJ) female mice. Two weeks after cell implantation, 100 µl of peptoid 1 and control peptoids were injected into xenografts at 110 µM in PBS (∼1 mg/kg) three times a week, up to 8 weeks. Tumor sizes were measured by a caliper. P = 0.0014, t test.

MCF-7 cells = assay: LDH leakage assay (plasma membrane integrity); assay type: cell-based, human; conditions: 50 µM, LDH leakage caused by cell lysis solution as the 100% control, measured immediately after treatment
Experimental: This assay is used to measure the membrane integrity as a function of the amount of cytoplasmic LDH (lactic dehydrogenase) released into the medium. Experiments were carried out according to the protocol of the In Vitro Toxicology Assay Kit, Lactic Dehydrogenase (LDH) based (Sigma-Aldrich). Briefly, cells were plated as described before, and peptoids were diluted similarly but in culturing media without phenol red to reduce background signal. After peptoid treatments, media supernatant were collected and centrifuged to remove any cell debris, and analyzed for LDH activity in a 96-well plate using the kit, absorbance at 490 nm and 690 nm measured using a microplate reader. All the following absorbance difference = A 490nm –A 690nm. Percentage of LDH leakage = (A -A testblank)/(A lysis -A blank)×100, where A is the average absorbance difference of the test wells and A lysis the average absorbance difference of wells with cells treated with cell lysis solution provided by the kit for 45 min. A testblank (media, diluted peptoids and LDH measuring reagents) and A blank (media and LDH measuring reagents) were background absorbance differences measured in the absence of cells.
These anticancer peptoids exert fast killing in cancer cells and are not affected by the multidrug resistance. […] The LDH assay measures membrane damage by quantifying the leakage of the cytoplasmic enzyme LDH. […]

[2] = test system: MRC-5 (fetal lung fibroblast); assay: MTS cell viability assay, MRC-5; assay type: cell-based; conditions: 72 h
Experimental: MCF-7, MCF-7/TxT50 and OVCAR-3 (available in ATCC) were kindly provided by Professor Branimir Sikic's lab at Stanford University, and were cultured in McCoy's 5A media (GIBCO) with 10% FBS and antibiotics. Primary dermal fibroblasts were gifts from Lifeline Cell Technology and were cultured <6 passages according to the protocol Lifeline provides. All the cells were cultured in cell incubators (Thermo Scientific) at 37°C with 5% CO2.
This assay is a colorimetric method for determining the number of viable cells in proliferation. Aliquots of 100 µl media containing 1×10^4 cells were distributed into each well of a 96-well plate (BD Falcon). The following day, when cell density reaches about ∼40% confluency, the cell media were removed and replaced with serial dilutions of peptoid stocks in culturing media. For peptoid dilutions, peptoid stocks were initially diluted in media at 100 µM and then diluted by half in series using a multichannel pipette, and maintained in 100 µl media for each concentration with triple repeats. After peptoid solutions were transferred onto cells in 96-well plates, cells were incubated at 37°C for certain time periods. Then 20 µl of the CellTiter 96 Aqueous Non-Radioactive cell proliferation assay (Promega) reagent which contains a tetrazolium compound, [3-(4,5-dimethylthiazol-2-yl)-5-(3-carboxymethoxyphenyl)-2-(4-sulfophenyl)-2H-tetrazolium, inner salt; MTS(a)], was added to each well and cells were further incubated for 2 h to metabolize. The absorbance of formazan products were measured at 490 nm in a microplate reader (Molecular Devices). Percentage of cell viability = (A -A testblank)/(A control -A blank)×100, where A is the absorbance of the test well and A control the average absorbance of wells with cells not treated with peptoids. A testblank (media, MTS, and diluted peptoids) and A blank (media and MTS) were background absorbances measured in the absence of cells.
The activity and selectivity of these peptoids against cancer cells were evaluated in vitro. Their cytotoxicity was tested in three cancer cell lines, MCF-7 (human breast cancer), LNCaP (human prostate cancer), and OVCAR-3 (human ovarian cancer). To estimate the selectivity of these peptoids in vitro, hemolytic activities of some peptoids were cited from previously published work (Table 2 **column), and the MRC-5 cell line (human fibroblasts derived from fetal lung tissues) and primary dermal fibroblasts were also tested as normal cell controls. Briefly, cells were treated with peptoids diluted in culturing media for certain time periods, and then cell viability was measured via MTS assays.

mice = assay: Acute toxicity observation in xenograft mice; assay type: in vivo; conditions: intratumor injections ~1 mg/kg three times a week, xenograft NSG mice
Experimental: as §1, §2

C[C@@H](c1ccccc1)N(CC(N)=O)C(=O)CN(C(=O)CN(CCCCN)C(=O)CN(C(=O)CN(C(=O)CN(CCCCN)C(=O)CN(C(=O)CN(C(=O)CN(CCCCN)C(=O)CN(C(=O)CN(C(=O)CNCCCCN)[C@@H](C)c1ccccc1)[C@@H](C)c1ccccc1)[C@@H](C)c1ccccc1)[C@@H](C)c1ccccc1)[C@@H](C)c1ccccc1)[C@@H](C)c1ccccc1)[C@@H](C)c1ccccc1 [Peptoid 1, H-(NLys-Nspe-Nspe)4-NH2] (H-[Nlys][Nspe][Nspe][Nlys][Nspe][Nspe][Nlys][Nspe][Nspe][Nlys][Nspe][Nspe]-NH2)
tumor growth [1]: significantly inhibited the tumor growth
LDH (enzyme) leakage (MCF-7 cells): ~50%
LC50 MRC-5 (fetal lung fibroblast) [2]: 8 µM
acute side effects in mice (mice): without causing any obvious acute side effects
